# Measured values from PMC6934184, “Selective DNA-PKcs inhibition extends the therapeutic index of localized radiotherapy and chemotherapy” (The Journal of Clinical Investigation, 2019).
# Target: T1, PAK4 (Homo sapiens, UniProt O96013)
# T1 construct: purchased Thermo Fisher Scientific (Life Technologies) SelectScreen
# Test: SelectScreen Z'LYTE
# Type: biochemical
# How it was run: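 SelectScreen broad panel; activity (Z'LYTE, Adapta) plus binding formats. ATP: Km app for CSF1R Z'LYTE; 10 for CAMK1 Adapta. Readout = % per kinase.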
# T1 sequence (O96013 whole entry): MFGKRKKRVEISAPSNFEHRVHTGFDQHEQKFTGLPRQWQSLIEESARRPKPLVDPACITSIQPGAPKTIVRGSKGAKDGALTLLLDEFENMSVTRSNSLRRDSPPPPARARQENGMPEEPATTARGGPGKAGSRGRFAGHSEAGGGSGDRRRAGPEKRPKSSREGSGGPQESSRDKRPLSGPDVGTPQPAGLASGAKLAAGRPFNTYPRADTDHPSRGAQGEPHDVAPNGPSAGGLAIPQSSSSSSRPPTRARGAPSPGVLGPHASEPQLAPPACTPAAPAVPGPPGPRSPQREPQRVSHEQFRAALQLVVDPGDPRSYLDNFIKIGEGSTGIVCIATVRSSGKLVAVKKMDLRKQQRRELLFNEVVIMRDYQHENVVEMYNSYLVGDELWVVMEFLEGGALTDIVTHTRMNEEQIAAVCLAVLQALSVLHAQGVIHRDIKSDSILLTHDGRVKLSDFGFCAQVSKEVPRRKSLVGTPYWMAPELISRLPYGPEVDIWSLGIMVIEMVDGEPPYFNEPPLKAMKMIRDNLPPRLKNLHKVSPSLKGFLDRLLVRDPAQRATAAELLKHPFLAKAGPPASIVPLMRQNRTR
compound,measurement,value
CN(C(=O)CN1CCOCC1)c1ccc2sc3c(-c4cccc5c(=O)cc(N6CC7CCC(C6)O7)oc45)cccc3c2c1 [NU5455],inhibition at 1 µM,-3.3%
